The EC50 is the concentration that produces a half-maximal response.

We go through 7 compounds from patent publication US20210087279A1, “REGULATABLE CHIMERIC ANTIGEN RECEPTOR” (Novartis AG, priority 2014, published 2021).

For test [1], the system named is reporter under NFAT control in JNL cells. Description: Dimerization molecule dose response, single vector construct 143775 in JNL cells, CD19 target. Type of test: cell-based. The note with it: nM to sub-nM doses. From the text:
The constructs and viral particles were made and tested essentially as described in Example 11. Viral particles were introduced into JNL cells and evaluated for activity essentially as described in Example 1 except that the target was CD19 (as opposed to EGFRviii).
Construct 143775 was introduced into cells and the affect of dimerization molecule concentration on activation evaluated essentially as described in Example 14.

The target in test [2] is biotinylated FKBP in the presence of everolimus. Description: FRB direct binding assay (AlphaLISA). Particulars: 30 nM biotinylated FKBP and FLAG FRB protein; everolimus serial diluted from 600 nM. How it is done: FRB mutations were also ranked in an alternative assay format. […] All dilutions were made in 1× AlphaLISA Immunoassay buffer (PerkinElmer). Anti-Flag acceptor beads (PerkinElmer) were added at 10 ug/ml final concentration and incubated for one hour at room temperature. Streptavidin donor beads (PerkinElmer), were then added at a final concentration of 40 ug/ml and the plate was protected from light and incubated for 30 minutes at room temperature. The plate was then read on the PerkinElmer EnVision Multiplate reader equipped with the Alpha Module using excitation of 680 nm and a 570 nm Emission filter.
In general terms: Alpha assays give light when donor and acceptor beads are brought close together.

The test system of test [3] is NFAT activation in Jurkat cells with NFAT-LUC reporter (JNL). Description: Jurkat NFAT-LUC assay, peptide tag (myc/Flag) dimerization switch. Type of test: cell-based. Here is the method: The non-regulatable CAR construct, 139scFv-BBZ, SEQ ID: 7, will be used as a control. Jurkat cells with NFAT-LUC reporter (JNL) were grown to the density of 0.5×10^6/ml in Jurkat cell growth media with puromycin at 0.5 μg/ml. For each transfection 2.5×10^6 cells were spun down at 100 g for 10 minutes. Two μg of DNA per construct was used per transfection. Amaxa Nucleofector solution V and supplement I were mixed and 100 μl was added into the tube with DNA construct. The mixture was then added to the cells and transferred to the electroporation cuvette. Electroporation was done under setting X-001 using Amaxa Nucleofector II Device. 0.5 ml of growth media was added immediately after eletroporation and the mixture were transferred into 2 ml growth media in one well of the 6-well plate. The cells were incubated in the 37° C. incubator with 5% CO2 overnight. Rabbit polyclonal antibody against myc tag was added to the cells which were transfected with RCAR construct with myc tag as the extracellular domain. The concentration of the polyclonal antibody was at 100 nM. One and half hour later, 100 nM of anti rabbit antibody was added in order to enhance cluster formation. The cell mixture was incubated at 37° C. for 18 hrs. Luciferase One Glo reagent 100 μl was added per well. The samples were incubated for 5 min at 37° C. and then luminescence was measured using a luminometer.
Similarly, a construct with Flag peptide tag as the extracellular domain was used to transfect reporter cells. Rabbit polyclonal antibody against Flag peptide tag was used at 100 nM; and to facilitate further clustering, an antibody against the rabbit polyclonal antibody was used at 100 nM. In addition, a construct with scFv 139 as the extracellular domain was used to transfect reporter cells, and EGFRvIII-Fc at 100 nM was used, and one and half hour later anti-Fc antibody was used.

Chain of biotinylated FKBP in the presence of everolimus (P62942 2-108 limits assumed): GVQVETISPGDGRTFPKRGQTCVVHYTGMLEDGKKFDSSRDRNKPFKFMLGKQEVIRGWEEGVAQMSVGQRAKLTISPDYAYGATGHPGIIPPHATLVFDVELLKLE

With `CO[C@H]1C[C@@H]2CC[C@@H](C)[C@@](O)(O2)C(=O)C(=O)N2CCCC[C@H]2C(=O)O[C@H]([C@H](C)C[C@@H]2CC[C@@H](O)[C@H](OC)C2)CC(=O)[C@H](C)/C=C(\C)[C@@H](O)[C@@H](OC)C(=O)[C@H](C)C[C@H](C)/C=C/C=C/C=C/1C` [rapamycin], the activation entry in test [1] is “effective at a broad range of concentrations”.

As for “E2032I: FRB point mutant; His-FRB SEQ ID NO: 207, His-FLAG-FRB SEQ ID NO: 213”, the EC50 in test [2] was 2.46 nM.

Consider “E2032L: FRB point mutant; His-FRB SEQ ID NO: 208, His-FLAG-FRB SEQ ID NO: 214”, for which the EC50 in test [2] came out at 2.15 nM.

Turning to “RCAR with Flag tag: flag peptide tag fused to linker, 4-1BB and CD3zeta, SEQ ID NO: 20”, the activation entry in test [3] (rabbit polyclonal anti-Flag antibody and anti-rabbit antibody, 100 nM each) is given as “only showed activation when both crosslinking reagents were added”.

“RCAR with c-myc peptide tag: c-myc peptide tag fused to linker, 4-1BB and CD3zeta, SEQ ID NO: 21”: in test [3] (anti-myc antibody 100 nM plus anti rabbit antibody 100 nM), the “activation after addition of anti rabbit antibody” value is “further enhanced”. Also, in test [3] (rabbit polyclonal anti-myc antibody 100 nM, compared to other antibodies), the NFAT activity entry is “higher NFAT activity”.

Regarding “T2098L: FRB point mutant; His-FRB SEQ ID NO: 209, His-FLAG-FRB SEQ ID NO: 215”, the EC50 in test [2] was determined as 1.44 nM.

As to “Wild type FRB: wild-type FRB; His-FRB SEQ ID NO: 206 (competition), His-FLAG-FRB SEQ ID NO: 212 (direct binding)”, in test [2], the 50% effective concentration (EC50) was 3.9 nM.
